Assay results reported in PubChem BioAssay (NCI).
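Cultured in 96-well plates, cells were exposed to test compound for 48 hours across five concentrations. GI50 is the concentration that inhibits growth by half. TGI marks complete inhibition of growth.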

What was measured:
Test in all cases: NCI-60 cell line screen, 48 h; in the data active = GI50 below about 0.43 µM; inactive = the rest
HCT-15 colon = test system: HCT-15 colon
RXF 393 renal = test system: RXF 393 renal
HCC-2998 colon = test system: HCC-2998 colon
786-0 renal = test system: 786-0 renal
HOP-92 NSCLC = test system: HOP-92 NSCLC
DU-145 prostate = test system: DU-145 prostate
CAKI-1 renal = test system: CAKI-1 renal
SF-268 CNS = test system: SF-268 CNS
KM12 colon = test system: KM12 colon
NCI-H460 lung = test system: NCI-H460 lung
MCF7 breast = test system: MCF7 breast
SK-MEL-5 melanoma = test system: SK-MEL-5 melanoma
MALME-3M melanoma = test system: MALME-3M melanoma
HCT-116 colon = test system: HCT-116 colon
M14 melanoma = test system: M14 melanoma
U251 CNS = test system: U251 CNS
SNB-75 CNS = test system: SNB-75 CNS
A549 NSCLC = test system: A549 NSCLC
SNB-19 CNS = test system: SNB-19 CNS
SR leukemia = test system: SR leukemia
OVCAR-8 ovarian = test system: OVCAR-8 ovarian
OVCAR-3 ovarian = test system: OVCAR-3 ovarian
HOP-62 NSCLC = test system: HOP-62 NSCLC
NCI-H226 lung = test system: NCI-H226 lung
PC-3 prostate = test system: PC-3 prostate
SF-295 CNS = test system: SF-295 CNS
NCI-H23 lung = test system: NCI-H23 lung
MOLT-4 leukemia = test system: MOLT-4 leukemia
HS 578T breast = test system: HS 578T breast
SF-539 CNS = test system: SF-539 CNS
NCI-H522 lung = test system: NCI-H522 lung
SK-MEL-2 melanoma = test system: SK-MEL-2 melanoma
IGROV1 ovarian = test system: IGROV1 ovarian
MDA-MB-435 = test system: MDA-MB-435
BT-549 breast = test system: BT-549 breast
K-562 leukemia = test system: K-562 leukemia
OVCAR-4 ovarian = test system: OVCAR-4 ovarian
EKVX NSCLC = test system: EKVX NSCLC
OVCAR-5 ovarian = test system: OVCAR-5 ovarian
UACC-257 melanoma = test system: UACC-257 melanoma
RPMI-8226 leukemia = test system: RPMI-8226 leukemia
UACC-62 melanoma = test system: UACC-62 melanoma
SN12C renal = test system: SN12C renal
A498 renal = test system: A498 renal
SK-OV-3 ovarian = test system: SK-OV-3 ovarian
SK-MEL-28 melanoma = test system: SK-MEL-28 melanoma
MDA-MB-231 breast = test system: MDA-MB-231 breast
LOX IMVI melanoma = test system: LOX IMVI melanoma
COLO 205 colon = test system: COLO 205 colon
T-47D breast = test system: T-47D breast
CCRF-CEM leukemia = test system: CCRF-CEM leukemia
NCI/ADR-RES ovarian = test system: NCI/ADR-RES ovarian
HL-60(TB) leukemia = test system: HL-60(TB) leukemia
HT29 colon = test system: HT29 colon
ACHN renal = test system: ACHN renal
SW-620 colon = test system: SW-620 colon
TK-10 renal = test system: TK-10 renal
UO-31 renal = test system: UO-31 renal

O=C1C(Cl)=C(N2CCN(CCOCCO)CC2)C(=O)c2ncccc21
5.51 µM: TGI (T-47D breast)
6.33 µM: TGI (NCI-H522 lung)
3.29 µM: TGI (HOP-92 NSCLC)
9.68 µM: TGI (RXF 393 renal)
> 10 µM: TGI (HCT-15 colon) | TGI (HCC-2998 colon) | TGI (786-0 renal) | TGI (DU-145 prostate) | TGI (CAKI-1 renal) | TGI (SF-268 CNS) | TGI (KM12 colon) | TGI (NCI-H460 lung) | TGI (MCF7 breast) | TGI (SK-MEL-5 melanoma) | TGI (MALME-3M melanoma) | TGI (HCT-116 colon) | TGI (M14 melanoma) | TGI (U251 CNS) | TGI (SNB-75 CNS) | TGI (A549 NSCLC) | TGI (SNB-19 CNS) | TGI (SR leukemia) | TGI (OVCAR-8 ovarian) | TGI (OVCAR-3 ovarian) | TGI (HOP-62 NSCLC) | TGI (NCI-H226 lung) | TGI (PC-3 prostate) | TGI (SF-295 CNS) | TGI (NCI-H23 lung) | TGI (MOLT-4 leukemia) | TGI (HS 578T breast) | TGI (SF-539 CNS) | TGI (SK-MEL-2 melanoma) | TGI (IGROV1 ovarian) | TGI (BT-549 breast) | TGI (K-562 leukemia) | TGI (OVCAR-4 ovarian) | TGI (EKVX NSCLC) | TGI (OVCAR-5 ovarian) | TGI (UACC-257 melanoma) | TGI (RPMI-8226 leukemia) | TGI (UACC-62 melanoma) | TGI (SN12C renal) | TGI (A498 renal) | TGI (SK-OV-3 ovarian) | TGI (SK-MEL-28 melanoma) | TGI (MDA-MB-231 breast) | TGI (LOX IMVI melanoma) | TGI (COLO 205 colon) | TGI (CCRF-CEM leukemia) | TGI (NCI/ADR-RES ovarian) | TGI (HL-60(TB) leukemia) | TGI (HT29 colon) | TGI (ACHN renal) | TGI (SW-620 colon) | TGI (TK-10 renal)
7.05 µM: TGI (MDA-MB-435)

Nc1nonc1C(=Nc1ccc(F)c(Cl)c1)NO
76.5 µM: TGI (SNB-75 CNS)
97.5 µM: TGI (UO-31 renal)
> 86.9 µM: TGI (A498 renal)
inactive: GI50 (HCT-15 colon) 47.3 µM | GI50 (RXF 393 renal) 33.6 µM | GI50 (HCC-2998 colon) > 91.5 µM | GI50 (786-0 renal) 63.3 µM | GI50 (HOP-92 NSCLC) 12.6 µM | GI50 (DU-145 prostate) 63.7 µM | GI50 (CAKI-1 renal) 28.8 µM | GI50 (SF-268 CNS) 39.4 µM | GI50 (KM12 colon) 79 µM | GI50 (NCI-H460 lung) > 93.2 µM | GI50 (MCF7 breast) 41.6 µM | GI50 (SK-MEL-5 melanoma) 41.4 µM | GI50 (MALME-3M melanoma) 95.2 µM | GI50 (HCT-116 colon) 51.5 µM | GI50 (M14 melanoma) 51.9 µM | GI50 (U251 CNS) > 75.7 µM | GI50 (SNB-75 CNS) 14.2 µM | GI50 (UO-31 renal) 12.6 µM | GI50 (A549 NSCLC) > 66 µM | GI50 (SNB-19 CNS) > 94.2 µM | GI50 (SR leukemia) > 63.2 µM | GI50 (OVCAR-8 ovarian) 71.1 µM | GI50 (OVCAR-3 ovarian) 43.1 µM | GI50 (HOP-62 NSCLC) 28 µM | GI50 (NCI-H226 lung) 68 µM | GI50 (PC-3 prostate) 42.4 µM | GI50 (SF-295 CNS) 37.9 µM | GI50 (NCI-H23 lung) 46.6 µM | GI50 (MOLT-4 leukemia) 43.4 µM | GI50 (HS 578T breast) 49.5 µM | GI50 (SF-539 CNS) 54.2 µM | GI50 (NCI-H522 lung) > 47.1 µM | GI50 (SK-MEL-2 melanoma) 65 µM | GI50 (IGROV1 ovarian) 28.9 µM | GI50 (MDA-MB-435) > 88.4 µM | GI50 (BT-549 breast) 29.8 µM | GI50 (K-562 leukemia) 58.8 µM | GI50 (OVCAR-4 ovarian) 25.3 µM | GI50 (EKVX NSCLC) 25.1 µM | GI50 (OVCAR-5 ovarian) 53.2 µM | GI50 (RPMI-8226 leukemia) 42.3 µM | GI50 (UACC-62 melanoma) 29.8 µM | GI50 (SN12C renal) 45.8 µM | GI50 (A498 renal) 21.1 µM | GI50 (SK-OV-3 ovarian) 49.3 µM | GI50 (SK-MEL-28 melanoma) > 100 µM | GI50 (MDA-MB-231 breast) 29.7 µM | GI50 (LOX IMVI melanoma) 40 µM | GI50 (COLO 205 colon) 60.5 µM | GI50 (T-47D breast) 20.4 µM | GI50 (CCRF-CEM leukemia) 98.3 µM | GI50 (NCI/ADR-RES ovarian) 49.2 µM | GI50 (HL-60(TB) leukemia) 62.8 µM | GI50 (HT29 colon) > 100 µM | GI50 (ACHN renal) 32.7 µM | GI50 (SW-620 colon) > 100 µM | GI50 (TK-10 renal) 55.9 µM
54.9 µM: TGI (HOP-92 NSCLC)
> 100 µM: TGI (HCT-15 colon) | TGI (RXF 393 renal) | TGI (HCC-2998 colon) | TGI (786-0 renal) | TGI (DU-145 prostate) | TGI (CAKI-1 renal) | TGI (SF-268 CNS) | TGI (KM12 colon) | TGI (NCI-H460 lung) | TGI (MCF7 breast) | TGI (SK-MEL-5 melanoma) | TGI (MALME-3M melanoma) | TGI (HCT-116 colon) | TGI (M14 melanoma) | TGI (U251 CNS) | TGI (A549 NSCLC) | TGI (SNB-19 CNS) | TGI (SR leukemia) | TGI (OVCAR-8 ovarian) | TGI (OVCAR-3 ovarian) | TGI (HOP-62 NSCLC) | TGI (NCI-H226 lung) | TGI (PC-3 prostate) | TGI (SF-295 CNS) | TGI (NCI-H23 lung) | TGI (MOLT-4 leukemia) | TGI (HS 578T breast) | TGI (SF-539 CNS) | TGI (NCI-H522 lung) | TGI (SK-MEL-2 melanoma) | TGI (IGROV1 ovarian) | TGI (MDA-MB-435) | TGI (BT-549 breast) | TGI (K-562 leukemia) | TGI (OVCAR-4 ovarian) | TGI (EKVX NSCLC) | TGI (OVCAR-5 ovarian) | TGI (RPMI-8226 leukemia) | TGI (UACC-62 melanoma) | TGI (SN12C renal) | TGI (SK-OV-3 ovarian) | TGI (SK-MEL-28 melanoma) | TGI (MDA-MB-231 breast) | TGI (LOX IMVI melanoma) | TGI (COLO 205 colon) | TGI (T-47D breast) | TGI (CCRF-CEM leukemia) | TGI (NCI/ADR-RES ovarian) | TGI (HL-60(TB) leukemia) | TGI (HT29 colon) | TGI (ACHN renal) | TGI (SW-620 colon) | TGI (TK-10 renal)
